# How the values were obtained:
# Format in all cases: physicochemical
# [1] = Indices of tableting performance (Hiestand) of bulk azithromycin; settings: forms N, M, G, A milled, F and J unmilled
# Protocol: Indices of tableting performance, for several azithromycin forms, were assessed to identify any mechanical deficiencies or attributes that may affect tablet formulation for these azithromycin forms. This assessment was performed in accordance with the procedures described in “Indices of Tableting, Performance” […] and D. P. Smith, Powder Technology 38 [1984] pp. 145-159. Specifically, the Brittle Fracture Index, BFI, was calculated from the ratio of a material's regular tensile strength to its compromised tensile strength. Strain Index, SI, was determined from the dynamic indentation hardness test. Worst Case Bonding Index was determined by assessing the extent of particle bonding remaining after decompression assuming a very short compression dwell time and a plastic mechanism of particle separation during decompression. Tableting Indices were determined for bulk azithromycin lots of six different crystalline forms, specifically forms N, M, G, A, F and J. Forms N, M and G were milled with a Fitzmill (Model JT, The Fitzpatrick Co., Elmhurst, Ill.) using a 0.027'' screen and knives at high speed in an attempt to match the smaller particle size of milled Form A. Unmilled forms F and J were evaluated “as is” due to their relatively small particle sizes.
# [2] = Density and Carr's Compressibility Index (flowability) of dry blends and dry granulations
# Excerpt: Carr's Compressibility Index was used to evaluate the flowability of the four dry granulations. Carr's Compressibility Index is a simple test to evaluate flowability by comparing both the initial and final (tapped) bulk volumes and the rate of packing down. A useful empirical guide to flow is given by Carr's compressibility index: Compressibility Index(%)=[(tapped density−initial density)/tapped density]×100 […] The procedure is described in Int. J. Pharm. Tech. & Prod. Mfr., 6(3) 10-16, 1985.
# [3] = Slug (compact) hardness, Schleuniger hardness tablet tester
# Excerpt: A compaction simulator was used to compress the blends. The compaction simulator was designed as a single station tablet press in which the compression dwell time can be adjusted to simulate different types of tablet presses. All the formulations were slugged on the compaction simulator configured as the Kilian RX-67 press with a dwell time of 0.3145 seconds using […] round flat face tooling. The slugs were then comminuted using a Fitz mill with a 0.125″ screen with knives forward and run at slow speed. […] The slugs were tested for hardness (kP scale), using a Schleuniger hardness tablet tester (Dr. Schleuniger Pharmatron AG, Solothurn, Switzerland).
# [4] = Tablet hardness, Schleuniger hardness tablet tester; settings: DCP anhydrous
# Protocol: (§1) All four formulations were compressed on the compaction simulator using either 0.344″×0.688″ oval tooling, or ½″ standard round concave (SRC) tooling. The tablets were tested for hardness (kP scale), using a Schleuniger hardness tablet tester (Dr. Schleuniger Pharmatron AG, Solothurn, Switzerland), and for friability (100 rotations/4 minutes) using a Vanderkamp Friabulator Tablet Tester (Vankel, Cary, N.C., US).
# [5] = Tablet friability, Vanderkamp Friabulator (100 rotations/4 minutes); settings: DCP anhydrous
# Protocol: Friability is a standard test known to one skilled in the art. Friability is measured under standardized conditions by weighing out a certain number of tablets (generally 20 tablets or less), placing them in a rotating Plexiglas drum in which they are lifted during replicate revolutions by a radial lever, and then dropped approximately 8 inches. After replicate revolutions (typically 100 revolutions at 25 rpm), the tablets are reweighed and the percentage of formulation abraded or chipped is calculated. The friability of the tablets, of the present invention, is preferably in the range of about 0% to 3%, and values about 1%, or less, are considered acceptable for most drug and food tablet contexts. Friability which approaches 0% is particularly preferred.
# as §1
# [6] = Tablet disintegration time, Automatic Disintegration Tester; settings: Table 2A; Long blend; Oval tooling; distilled water at 37° C.
# Protocol: The disintegration time was determined in distilled water at 37° C. using an Automatic Disintegration Tester (Model ZT72, Erweka USA Inc, Milford, Conn.) for the long blend tablets. Even with extensive blending times with magnesium stearate, reasonably short disintegration times of 15 and 20 seconds were obtained.
# [7] = Tablet hardness, Schleuniger hardness tablet tester; settings: Table 4D; high drug loading; diluent DCP, dihyd.; modified capsule shape
# [8] = Tablet friability, Vanderkamp Friabulator (100 rotations/4 minutes); settings: Table 4D; high drug loading; diluent DCP, dihyd.; modified capsule shape
# [9] = 35.2 wt % azithromycin, dicalcium phosphate anhydrous diluent, Long blend method
# [10] = 35.2 wt % azithromycin, dicalcium phosphate anhydrous diluent, Long blend method, slugged
# [11] = Table 3A, low drug loading: 35.2 wt % azithromycin, 54.8 wt % dicalcium phosphate anhydrous, long blend
# [12] = Table 4B, high drug loading (58.2 wt % azithromycin), diluent DCP, dihyd.
# [13] = Table 3C, low drug loading (35.2 wt % azithromycin), oval tablets, target weight 750 mg
smiles,measurement,setting,value
"CCC1OC(=O)C(C)C(O[C@H]2C[C@@](C)(OC)[C@@H](O)C(C)O2)C(C)[C@@H](OC2OC(C)CC(N(C)C)[C@H]2O)[C@@](C)(O)C[C@@H](C)CN(C)[C@H](C)[C@@H](O)[C@]1(C)O (some centres unmarked) [Form F, azithromycin monohydrate hemi-ethanol solvate]",Brittle Fracture Index (BFI),[1],0.37
same,Strain Index (SI),[1],0.0041
same,Tensile Strength,[1],1.62 Mpa
same,Worst Case Bonding Index (BIw) × 10^2,[1],0.9
same,Dry Blend Carr's Index,[2]; [9],43%
same,Dry Blend density As Is,[2]; [9],0.50 g/cc
same,Dry Blend density Tapped,[2]; [9],0.88 g/cc
same,Granulation Carr's Index,[2]; [10],22%
same,Granulation Density As Is,[2]; [10],0.84 g/cc
same,Granulation Density Tapped,[2]; [10],1.07 g/cc
same,Granulation Carr's Index,[2]; [11],22%
same,Granulation Density As Is,[2]; [11],0.84 g/cc
same,Granulation Density Tapped,[2]; [11],1.08 g/cc
same,Dry Granulation Carr's Index,[2]; [12],27%
same,Dry Granulation Density As Is,[2]; [12],0.63 g/cc
same,Dry Granulation Density Tapped,[2]; [12],0.86 g/cc
same,Avg Slug Hardness,[3]; [9],22.4 kP
same,Avg Slug Hardness,[3]; [11],22 kP
same,Avg Slug Hardness,[3]; [12],9 kP
same,Avg Tablet Hardness,"[4]; Table 2A, 35.2 wt % azithromycin, Long blend, Oval tooling, compression force 13.5 kN (A), 19 kN (F)",10.3 kP
same,Avg Hardness,[4]; [13],10.3 kP
same,Friability,"[5]; Table 2A, 35.2 wt % azithromycin, Long blend, Oval tooling",0.48%
same,Friability,[5]; [13],0.48%
same,Mean disintegration Time,[6],20 s
same,Avg Tablet Hardness,[7],7.0 kP
same,Friability,[8],0.31%
